Source: PubChem BioAssay AID1963858 (Molecular Pharmacology Branch, DTP, NCI, 2024)

Tested on: HOP-62 multicell spheroids with HUVEC/MSC, viability
Assay: Anticancer human tumor HOP-62 cell line growth inhibition [KRAS2];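 further: viability read after a week of compound exposure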;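 on viability, T/C: 100% = DMSO vehicle-treated spheroids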
Details: for IC50: curve of first compound; for viability, T/C: stronger effect = lower value
Method in brief: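 KRAS-mutant tumor cells were grown as spheroids with HUVEC endothelial cells and human MSCs as stroma. Targeted agents were tested alone and with KRAS pathway inhibitors. Doses started at or near clinical Cmax, or 10 microM, descending half-log.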

[1] = second compound 0.1 µM, first compound 0.0316 µM
[2] = second compound 0.1 µM, first compound 0.1 µM
[3] = second compound 0.316 µM, first compound 0.0316 µM
[4] = second compound 0.316 µM, first compound 0.1 µM
[5] = second compound 1 µM, first compound 0.0316 µM
[6] = second compound 1 µM, first compound 0.1 µM
[7] = second compound 3.16 µM, first compound 0.0316 µM
[8] = second compound 3.16 µM, first compound 0.1 µM
[9] = second compound 10 µM, first compound 0.0316 µM
[10] = second compound 10 µM, first compound 0.1 µM

`CC1OCC2(CCN(c3cnc(Sc4ccnc(N)c4Cl)c(N)n3)CC2)C1N` (stereo not given) + C=CC(=O)N1CCN(c2nc(=O)n(-c3c(C)ccnc3C(C)C)c3nc(-c4c(O)cccc4F)c(F)cc23)C(C)C1 showed an IC50 (second compound 0.1 µM) of less than 31.6 nM, an IC50 (second compound 0.316 µM) of 62.3 nM and an IC50 (second compound 1 µM) of 90.5 nM. It also gave an IC50 (second compound 3.16 µM) of 134 nM, an IC50 (second compound 10 µM) of less than 31.6 nM and a viability, T/C [1] of 47.7%. It also gave a viability, T/C [2] of 39.1%, a viability, T/C (second compound 0.1 µM, first compound 0.316 µM) of 26.5% and a viability, T/C (second compound 0.1 µM, first compound 1 µM) of 16.3%. For the same molecule, the viability, T/C (second compound 0.1 µM, first compound 3.16 µM) was 12.5%, the viability, T/C (second compound 0.1 µM, first compound 10 µM) was 13.3% and the viability, T/C [3] was 63.7%. The viability, T/C [4] was 39.8%, the viability, T/C (second compound 0.316 µM, first compound 0.316 µM) was 28.4% and the viability, T/C (second compound 0.316 µM, first compound 1 µM) was 19.2%. It also gave a viability, T/C (second compound 0.316 µM, first compound 3.16 µM) of 15.6%, a viability, T/C (second compound 0.316 µM, first compound 10 µM) of 13.6% and a viability, T/C [5] of 67.5%. For the same molecule, the viability, T/C [6] was 47%, the viability, T/C (second compound 1 µM, first compound 0.316 µM) was 36.9% and the viability, T/C (second compound 1 µM, first compound 1 µM) was 27.4%. For the same molecule, the viability, T/C (second compound 1 µM, first compound 3.16 µM) was 18.2%, the viability, T/C (second compound 1 µM, first compound 10 µM) was 21.5% and the viability, T/C [7] was 61%. For the same molecule, the viability, T/C [8] was 51.7%, the viability, T/C (second compound 3.16 µM, first compound 0.316 µM) was 42.5% and the viability, T/C (second compound 3.16 µM, first compound 1 µM) was 30.1%. For the same molecule, the viability, T/C (second compound 3.16 µM, first compound 3.16 µM) was 24.1%, the viability, T/C (second compound 3.16 µM, first compound 10 µM) was 24.9% and the viability, T/C [9] was 44.6%. For the same molecule, the viability, T/C [10] was 40.7%, the viability, T/C (second compound 10 µM, first compound 0.316 µM) was 30.1% and the viability, T/C (second compound 10 µM, first compound 1 µM) was 26.2%. It also gave a viability, T/C (second compound 10 µM, first compound 3.16 µM) of 25.8% and a viability, T/C (second compound 10 µM, first compound 10 µM) of 23.2%.

Molecule `CN(C)C/C=C/C(=O)Nc1cc2c(Nc3ccc(F)c(Cl)c3)ncnc2cc1O[C@H]1CCOC1` + CNCc1ccccc1-c1csc(C(C)Nc2nc(C)nc3cc(OC)c(OC)cc23)c1 has an IC50 (second compound 0.1 µM) greater than 100 nM, an IC50 (second compound 0.316 µM) greater than 100 nM and an IC50 (second compound 1 µM) greater than 100 nM. The IC50 (second compound 3.16 µM) was 0.515 nM, the IC50 (second compound 10 µM) was less than 0.316 nM and the viability, T/C (second compound 0.1 µM, first compound 0.000316 µM) was 110%. For the same molecule, the viability, T/C (second compound 0.1 µM, first compound 0.001 µM) was 106%, the viability, T/C (second compound 0.1 µM, first compound 0.00316 µM) was 111% and the viability, T/C (second compound 0.1 µM, first compound 0.01 µM) was 115%. It also gave a viability, T/C [1] of 111%, a viability, T/C [2] of 96.5% and a viability, T/C (second compound 0.316 µM, first compound 0.000316 µM) of 124%. It also gave a viability, T/C (second compound 0.316 µM, first compound 0.001 µM) of 115%, a viability, T/C (second compound 0.316 µM, first compound 0.00316 µM) of 110% and a viability, T/C (second compound 0.316 µM, first compound 0.01 µM) of 109%. The viability, T/C [3] was 113%, the viability, T/C [4] was 108% and the viability, T/C (second compound 1 µM, first compound 0.000316 µM) was 101%. It also gave a viability, T/C (second compound 1 µM, first compound 0.001 µM) of 105%, a viability, T/C (second compound 1 µM, first compound 0.00316 µM) of 101% and a viability, T/C (second compound 1 µM, first compound 0.01 µM) of 99.8%. It also gave a viability, T/C [5] of 85.8%, a viability, T/C [6] of 101% and a viability, T/C (second compound 3.16 µM, first compound 0.000316 µM) of 73.8%. It also gave a viability, T/C (second compound 3.16 µM, first compound 0.001 µM) of 16.4%, a viability, T/C (second compound 3.16 µM, first compound 0.00316 µM) of 19.2% and a viability, T/C (second compound 3.16 µM, first compound 0.01 µM) of 6.17%. For the same molecule, the viability, T/C [7] was 31.4%, the viability, T/C [8] was 14% and the viability, T/C (second compound 10 µM, first compound 0.000316 µM) was 0.18%. The viability, T/C (second compound 10 µM, first compound 0.001 µM) was 0.14%, the viability, T/C (second compound 10 µM, first compound 0.00316 µM) was 0.15% and the viability, T/C (second compound 10 µM, first compound 0.01 µM) was 0.15%. The viability, T/C [9] was 0.16% and the viability, T/C [10] was 1.46%.
